Our source for the mortality values is US8680269B2, “Pesticidal compositions” (Dow AgroSciences, LLC., priority 2009, dated 2014).

Experiment [1] relates to corn earworm (CEW; Helicoverpa zea). Kind of experiment: Insecticidal test for corn earworm, 128-well diet tray assay. The note with it: 144 h, 50 μg/cm2 on artificial diet, second instar larvae, six days at 25° C. In kind it is in vivo. On the procedure: (§1) Bioassays on corn earworm (CEW; Helicoverpa zea: Lepidoptera) were conducted using a 128-well diet tray assay. Three to five second instar CEW larvae were placed in each well (3 mL) of the diet tray that had been previously filled with 1 mL of artificial diet to which 50 μg/cm^2 of the test compound (dissolved in 50 μL of 90:10 acetone-water mixture) had been applied (to each of eight wells) and then allowed to dry. Trays were covered with a clear self-adhesive cover, and held at 25° C., 14:10 light-dark for six days. Percent mortality was recorded for the larvae in each well; activity in the eight wells was then averaged.

Experiment [2] deals with beet armyworm (BAW; Spodoptera exigua). Kind of experiment: Insecticidal test for beet armyworm, 128-well diet tray assay. In kind it is in vivo. The note with it: 144 h, 50 μg/cm2 on artificial diet, second instar larvae, six days at 25° C. The protocol:
as §1, with “beet armyworm (BAW; Spodoptera exigua:” for “corn earworm (CEW; Helicoverpa zea:”, “BAW” for “CEW”

Turning to `Cc1ccccc1C(C)NC(=S)N/N=C/c1ccc(-c2ncn(-c3ccc(OC(F)(F)F)cc3)n2)cc1` (centres unmarked) [Compound 147], the mortality at 50 µg/cm2 in experiment [1] and in experiment [2] was 50 to 100% in each case.
`C/C(=N\NC(=S)Nc1c(C)cccc1C)c1ccc(-c2cnn(-c3ccc(OC(F)(F)F)cc3)c2)cc1` [Compound 139]: the mortality at 50 µg/cm2 in experiment [1] and in experiment [2] was 50 to 100% in each case.
With `FC(F)(F)Oc1ccc(-n2cnc(-c3ccc(/C=N/NC(=S)Nc4ncc(Cl)cc4Cl)cc3)n2)cc1` [Compound 113], the mortality at 50 µg/cm2 in experiment [1] and in experiment [2] was less than 50% each time.
As for `COc1ccc(NC(=S)N/N=C/c2ccc(-c3ncn(-c4ccc(OC(F)(F)C(F)(F)F)cc4)n3)cc2)c(C)c1` [Compound 122], the mortality at 50 µg/cm2 in experiment [1] and in experiment [2] was 50 to 100% in each case.
For `FC(F)(F)Oc1ccc(-n2ccc(-c3ccc(/C=N/NC(=S)Nc4c(Cl)cccc4Cl)cc3)n2)cc1` [Compound 137], the mortality at 50 µg/cm2 in experiment [1] and in experiment [2] was 50 to 100% each time.
On to `COc1cc(C)ccc1NC(=S)N/N=C/c1ccc(-c2ncn(-c3ccc(OC(F)(F)F)cc3)n2)cc1` [Compound 117], for which the mortality at 50 µg/cm2 in experiment [1] and in experiment [2] was 50 to 100% throughout.
Consider `CCCCc1ccc(-n2cnc(-c3ccc(/C=N/NC(=S)Nc4c(C)cc(OC)cc4C)cc3)n2)cc1` [Compound 124], for which the mortality at 50 µg/cm2 in experiment [1] and in experiment [2] was 50 to 100% in each case.
Consider `COc1ccc([C@@H](C)NC(=S)N/N=C/c2ccc(-c3ncn(-c4ccc(OC(F)(F)F)cc4)n3)cc2)cc1` [Compound 142], for which the mortality at 50 µg/cm2 in experiment [1] and in experiment [2] was 50 to 100% in each case.
Take `CC(C)c1ccccc1NC(=S)N/N=C/c1ccc(-c2ncn(-c3ccc(OC(F)(F)F)cc3)n2)cc1` [Compound 80]: the mortality at 50 µg/cm2 in experiment [1] and in experiment [2] was 50 to 100% in each case.
In the case of `CCc1cccc(CC)c1NC(=S)N/N=C(\C)c1ccc(-c2ncn(-c3ccc(OC(F)(F)F)cc3)n2)cc1` [Compound 110], the mortality at 50 µg/cm2 in experiment [1] and in experiment [2] was 50 to 100% in each case.
Regarding `CC(NC(=S)N/N=C/c1ccc(-c2ncn(-c3ccc(OC(F)(F)F)cc3)n2)cc1)c1ccc2c(c1)OCO2` (centres unmarked) [Compound 159], the mortality at 50 µg/cm2 in experiment [1] and in experiment [2] was 50 to 100% each time.
`FC(F)(F)Oc1ccc(-n2ccc(-c3ccc(/C=N/NC(=S)Nc4c(Cl)cccc4Cl)cc3)c2)cc1` [Compound 135]: the mortality at 50 µg/cm2 in experiment [1] and in experiment [2] was 50 to 100% each time.
In the case of `COCc1ccc(C(C)NC(=S)N/N=C/c2ccc(-c3ncn(-c4ccc(OC(F)(F)F)cc4)n3)cc2)cc1` (centres unmarked) [Compound 157], the mortality at 50 µg/cm2 in experiment [1] and in experiment [2] was 50 to 100% each time.
For the compound `COc1ccc(C(C)NC(=S)N/N=C/c2ccc(-c3ncn(-c4ccc(OC(F)(F)F)cc4)n3)cc2)cc1OC` (centres unmarked) [Compound 151], the mortality at 50 µg/cm2 in experiment [1] and in experiment [2] was 50 to 100% each time.
As to `COc1cccc(NC(=S)N/N=C/c2ccc(-c3ncn(-c4ccc(OC(F)(F)F)cc4)n3)cc2)c1` [Compound 94], the mortality at 50 µg/cm2 in experiment [1] and in experiment [2] was 50 to 100% throughout.
With `CC(NC(=S)N/N=C/c1ccc(-c2ncn(-c3ccc(OC(F)(F)F)cc3)n2)cc1)c1ccsc1` (centres unmarked) [Compound 155], the mortality at 50 µg/cm2 in experiment [1] and in experiment [2] was 50 to 100% each time.
Regarding `C=C(C)c1ccccc1NC(=S)N/N=C/c1ccc(-c2ncn(-c3ccc(OC(F)(F)F)cc3)n2)cc1` [Compound 91], the mortality at 50 µg/cm2 in experiment [1] and in experiment [2] was 50 to 100% each time.
Regarding `Cc1ccc(NC(=S)N/N=C/c2ccc(-c3ncn(-c4ccc(OC(F)(F)F)cc4)n3)cc2)cc1` [Compound 92], the mortality at 50 µg/cm2 in experiment [1] and in experiment [2] was 50 to 100% throughout.
On to `COC(=O)C1CC(c2ccc(/C=N/NC(=S)Nc3c(Cl)cccc3Cl)cc2)=NN1c1ccc(OC(F)(F)F)cc1` (centres unmarked) [Compound 131], for which the mortality at 50 µg/cm2 in experiment [1] and in experiment [2] was 50 to 100% in each case.
Consider `Cc1cc(Cl)cc(C)c1NC(=S)N/N=C/c1ccc(-c2ncn(-c3ccc(OC(F)(F)F)cc3)n2)cc1` [Compound 114], for which the mortality at 50 µg/cm2 in experiment [1] and in experiment [2] was 50 to 100% each time.
Regarding `Cc1ccc(C(C)NC(=S)N/N=C/c2ccc(-c3ncn(-c4ccc(OC(F)(F)F)cc4)n3)cc2)cc1` (centres unmarked) [Compound 144], the mortality at 50 µg/cm2 in experiment [1] and in experiment [2] was 50 to 100% each time.
Regarding `CC(C)(C)c1ccccc1NC(=S)N/N=C/c1ccc(-c2ncn(-c3ccc(OC(F)(F)F)cc3)n2)cc1` [Compound 83], the mortality at 50 µg/cm2 in experiment [1] and in experiment [2] was less than 50% each time.
Consider `COc1ccc(C(C)NC(=S)N/N=C/c2ccc(-c3ncn(-c4ccc(OC(F)(F)F)cc4)n3)cc2)cc1` (centres unmarked) [Compound 143], for which the mortality at 50 µg/cm2 in experiment [1] and in experiment [2] was 50 to 100% throughout.
As for `Cc1ccc(NC(=S)N/N=C/c2ccc(-c3ncn(-c4ccc(OC(F)(F)F)cc4)n3)cc2)c(C)c1` [Compound 95], the mortality at 50 µg/cm2 in experiment [1] and in experiment [2] was 50 to 100% in each case.
Turning to `CCN(/N=C/c1ccc(-c2ncn(-c3ccc(OC(F)(F)F)cc3)n2)cc1)C(=S)Nc1ccc(OC)cc1C` [Compound 86], the mortality at 50 µg/cm2 in experiment [1] and in experiment [2] was 50 to 100% each time.
Regarding `COc1ccc(C(C)NC(=S)N/N=C/c2ccc(-c3ncn(-c4ccc(OC(F)(F)F)cc4)n3)cc2)cc1C` (centres unmarked) [Compound 149], the mortality at 50 µg/cm2 in experiment [1] and in experiment [2] was 50 to 100% throughout.
Turning to `COc1ccc(C)cc1NC(=S)N/N=C/c1ccc(-c2ncn(-c3ccc(OC(F)(F)F)cc3)n2)cc1` [Compound 89], the mortality at 50 µg/cm2 in experiment [1] and in experiment [2] was 50 to 100% each time.
With `COc1ccccc1C(C)NC(=S)N/N=C/c1ccc(-c2ncn(-c3ccc(OC(F)(F)F)cc3)n2)cc1` (centres unmarked) [Compound 148], the mortality at 50 µg/cm2 in experiment [1] and in experiment [2] was 50 to 100% throughout.
In the case of `Cc1ncccc1NC(=S)N/N=C/c1ccc(-c2ncn(-c3ccc(OC(F)(F)F)cc3)n2)cc1` [Compound 99], the mortality at 50 µg/cm2 in experiment [1] and in experiment [2] was 50 to 100% throughout.
In the case of `Cc1cccc(C)c1NC(=S)N/N=C/c1ccc(-c2ccn(-c3ccc(OC(F)(F)F)cc3)c2)cc1` [Compound 134], the mortality at 50 µg/cm2 in experiment [1] and in experiment [2] was 50 to 100% each time.
`Cc1cc(C)c(NC(=S)N/N=C/c2ccc(-c3ncn(-c4ccc(OC(F)(F)F)cc4)n3)cc2)c(C)n1` [Compound 106]: the mortality at 50 µg/cm2 in experiment [1] and in experiment [2] was 50 to 100% in each case.
For `Cc1cccc(C)c1NC(=S)N/N=C/c1ccc(-c2cnn(-c3ccc(OC(F)(F)F)cc3)c2)cc1` [Compound 138], the mortality at 50 µg/cm2 in experiment [1] and in experiment [2] was 50 to 100% throughout.
Consider `CCc1cc(OC)ccc1NC(=S)N/N=C/c1ccc(-c2ncn(-c3ccc(OC(F)(F)F)cc3)n2)cc1` [Compound 111], for which the mortality at 50 µg/cm2 in experiment [1] and in experiment [2] was 50 to 100% in each case.
For the compound `COC(=O)c1ccccc1NC(=S)N/N=C/c1ccc(-c2ncn(-c3ccc(OC(F)(F)F)cc3)n2)cc1` [Compound 84], the mortality at 50 µg/cm2 in experiment [1] and in experiment [2] was less than 50% in each case.
